According to PMC12867150, “A fungi-derived cyclic peptide enhances Th9-mediated antitumor immunity by targeting ZAP70 and SREBP1” (The Journal of Clinical Investigation, 2025):
Values joined by “and” are separate entries in the source; they are usually repeats but may differ in a detail not shown here. Equal values may be shown once. Where a name gives a salt, the structure may show the parent alone.

Legend:
[1] = tested on: B16-OVA melanoma; test: Adoptive transfer of OT-II Th9 cells, B16-OVA tumor growth in β2m-KO mice (Figure 2H); type: in vivo; conditions: result in words
Excerpt: (§1) (A) Schematic of the therapeutic model. C57BL/6 mice were subcutaneously inoculated with B16-OVA melanoma cells (5 × 10^5) and preconditioned with cyclophosphamide (CTX) on day 4. […] (B–G) Flow-cytometric analysis of transferred CD45.1^+ OT-II Th9 cells (B and C) and endogenous CD4^+ (D and E) and CD8^+ T cells (F and G) in spleens and tumors, showing frequencies and absolute numbers (n = 4 mice per group). (H) Tumor growth curves in B16-OVA–bearing C57BL/6 or β2-microglobulin–deficient (β2m-KO) mice following transfer of control or EpA-treated OT-II Th9 cells (n = 4 mice per group). (I) C57BL/6 mice bearing B16-OVA tumors were treated with control or EpA-induced OT-II Th9 cells (2 × 10^6, i.v., day 5), followed by anti–PD-1 antibody (200 μg, i.p.) on day 7, and (100 μg, i.p.) on day 10 and 12. Tumor growth is shown with individual trajectories (n = 6 mice per group). Statistical analysis was performed using 2-tailed unpaired Student’s t test ([…], B–G) or 1-way ANOVA with Tukey’s post hoc test (H and I). All data are presented as the mean ± SEM. *P < 0.05, **P < 0.01, ***P < 0.001. Schematic in A created using BioRender (https://Biorender.com).
To directly assess the requirement for endogenous CD8^+ T cells, we utilized β2-microglobulin–deficient (β2m-KO) mice, which lack functional MHC class I and are therefore devoid of CD8^+ T cells ([32]). […]

[2] = tested on: human Th9 cells; test: Human Th9 differentiation, IL-9 by flow cytometry (Figure 8A-B, S9A); type: cell-based; conditions: for IL-9 production in human CD4⁺ T cells (flow cytometric analysis): Figure 8B, Th9-polarizing conditions, individual replicates, one per column (n = 4); for intracellular IL-9 expression in human Th9 cells: flow cytometry, Supplemental Figure 9A
Description: Naive human CD4^+ T cells were isolated from PBMCs obtained from healthy donors using the EasySep Human Naive CD4^+ T Cell Isolation Kit II ([…] Technologies, catalog 17555), according to the manufacturer’s protocol. Isolated T cells were cultured in OptiVitro T Cell Medium SF (Excell Bio, catalog TE000-N022) supplemented with recombinant human IL-2 (100 U/mL, Novoprotein, catalog C013). T cell activation was achieved using plate-bound anti-CD3 (5 μg/mL) and soluble anti-CD28 antibodies (2 μg/mL).
For Th9 polarization, cultures were supplemented with IL-4 (10 ng/mL, PeproTech, catalog AF-200-04), TGF-β (1 ng/mL), and neutralizing anti–IFN-γ monoclonal antibody (10 μg/mL, clone B27, BioXcell, catalog BE0245). After 3 days of initial culture, cells were either collected for downstream assays or continued in extended culture with refreshed cytokines to maintain lineage commitment without antibodies. Th9 cells were collected at days 4, 5, and 6 for subsequent in vitro assays. For adoptive transfer studies, day 4–cultured Th9 cells were washed and prepared for intravenous injection.
Details regarding staining panels (human and mouse), reagents (including clones and catalog numbers), acquisition settings, compensation/controls, and analysis procedures are provided in Supplemental Methods.
MH9A4, Biolegend, Cat. No. 507605, PE/Cy7, clone MH9A4, Biolegend, Cat. No. […]
clone Mab11, Biolegend, Cat. No. 502908), Perforin (APC, clone dG9, Biolegend, Cat.
Flow cytometric acquisition was performed using a BD Fortessa or Cytek Aurora cytometer. Data were analyzed with FlowJo software (v10.8.1 or newer). Fluorescence compensation, isotype-matched controls, and fluorescence-minus-one (FMO) controls were applied as appropriate for multicolor panel validation. […]

[3] = tested on: mitochondria of Th9 cells; test: Transmission electron microscopy of mitochondrial number and diameter (Figure 4J-K); type: cell-based, mouse
Description: Mitochondrial mass and membrane potential were assessed using MitoTracker™ Deep Red FM (Thermo Fisher Scientific, catalog M22426) and TMRM (tetramethylrhodamine methyl ester; Macklin, catalog T868125), respectively, following the manufacturers’ protocols. Cells were incubated with the respective dyes, washed, and subjected to flow cytometry or fluorescence microscopy analysis. For ultrastructural assessment, mitochondrial number and diameter were quantified from high-resolution transmission electron microscopy (TEM) images using ImageJ software.

[4] = tested on: B16-OVA melanoma; test: Adoptive transfer of OT-II Th9 cells with anti-PD-1, B16-OVA tumor growth (Figure 2I); type: in vivo, C57BL/6 mice; conditions: EpA-Th9 cells with anti-PD-1; result in words
Excerpt: as §1
Finally, we examined whether the CD8^+ T cell–supporting capacity of EpA-Th9 cells could synergize with immune checkpoint blockade (ICB) therapy. […]

| Compound | enhanced antitumor efficacy in β2m-KO hosts [1] | IL-9 production in human CD4⁺ T cells (flow cytometric analysis) ([2]; Day5) | IL-9 production in human CD4⁺ T cells (flow cytometric analysis) ([2]; Day6) | IL-9 expression, human Th9 ([2]; day 5 to day 6, result in words) | intracellular IL-9 expression in human Th9 cells ([2]; replicate 1) [%] | intracellular IL-9 expression in human Th9 cells ([2]; replicate 2) [%] | intracellular IL-9 expression in human Th9 cells ([2]; replicate 3) [%] | intracellular IL-9 expression in human Th9 cells ([2]; replicate 4) [%] | Number of mitochonodrion/cell ([3]; Figure 4J, individual cells) | number and diameter of mitochondria ([3]; result in words) | response to PD-1 blockade [4] | IL-9 production, human EpA-Th9 ([2]; with fatostatin, result in words) |
| --- | --- | --- | --- | --- | --- | --- | --- | --- | --- | --- | --- | --- |
| anteiso-C15 Leu7 surfactin [EpA] | completely abolished | 43.3 and 42.8 and 42.9 and 42 | 34.5 and 32.5 and 32.7 and 34.1 | significantly elevated IL-9 expression | 22 | 24.8 | 22.1 | 24.3 | 12 and 23 and 11 and 16 and 10 and 21 and 9 and 17 and 6 and 7 and 24 | increased number and diameter of mitochondria | significantly enhanced the therapeutic response to PD-1 blockade | – |
| CCCc1cc(-c2nc(-c3ccc(C)cc3)cs2)ccn1 [fatostatin, fatostatin hydrobromide, reference compound] | – | – | – | – | 23.3 | 24.1 | 23.7 | 23.5 | – | – | – | further augmented |
